Measurements published in patent US20260035479A1, “GD2 BI-SPECIFIC INVARIANT NATURAL KILLER T CELL ENGAGERS AND METHODS OF USE THEREOF” (The Children's Hospital of Philadelphia, priority 2022, published 2026).

Key:
hepatic iNKTs = assay: Glycolipid antigen-iNKT stimulation in mice, hepatic iNKT cytokine expression by flow cytometry; format: in vivo, C57BL/6 mice; details: for IFN-γ MFI relative to PBS: n=2; for iNKT expression of intracellular IL-4 vs PBS / iNKT expression of surface CD107a vs PBS / expression of IFN-γ in iNKTs: acute stimulation, 4 μg intraperitoneal; for expression of IFN-γ in iNKTs: livers harvested at hour 4, PBS control 10.1%
Procedure: FIG. 7: iNKT Response to Glycolipid Antigen Stimulation. Two C57BL/6 mice per group were injected with phosphate-buffered saline (PBS), alpha-galactosyl ceramide (a-GalCer), or C34 at hour 0. At hour 4, mice were euthanized, their livers were excised and hepatic lymphocytes isolated and stained for NK1.1+ TCR-β+ mononuclear single cells, and intracellular IFN-γ was assayed by flow cytometry. The IFN-γ positive gate was drawn based on unstained controls. Representative data shown are from one mouse.
FIGS. 8A-8C: Acute and Chronic cytokine expression following GAg-stimulation of iNKTs. Two C57BL/6 mice per group were injected with 4 μg of C34, alpha galactosyl-ceramide (aGC), or Phosphate-Buffered Saline (PBS), in acute or chronic stimulation groups. Hepatic lymphocytes were then isolated and stained for NK1.1, TCR-β, and interferon-gamma (IFN-γ) with intra- and extracellular staining methods. (FIG. 8A) IFN-γ mean fluorescence intensity (MFI) of iNKTs. (FIG. 8B) CD107a MFI of iNKTs. (FIG. 8C) Interleukin-4 MFI of iNKTs.
Glycolipid antigen-iNKT stimulation experiments. C57/BL6 mice were injected with free glycolipid antigen or phosphate-buffered saline (PBS) intraperitoneally at a dose of 4 μg per injection in “acute” and “chronic” exposure situations. In acute stimulation conditions, intraperitoneal injections were given at hour 0, then at hour 4 mice were sacrificed and livers harvested and processed as above. In chronic stimulation conditions, animals received the 4 μg dose of glycolipid antigen days 0, 4, and 7. Livers were then harvested 4 hours after the final intraperitoneal injection and processed as described above. Hepatic mononuclear cells were extracellularly stained with fluorophore-labeled loaded-CD1d tetramer, anti-NK1.1, anti-CD107a, and then fixed and stained intracellularly with anti-IFN-Y, anti-IL-4, anti-TCR-β using a Fixation/Permeabilization kit (BD) and analyzed on FACSVerse flow cytometer (BD).
Data Analysis. Cytokinc expression analysis: FCS files were analyzed using Flowjo (TreeStar) software. Mean fluorescence intensity (MFI) of IFN-γ CD107a, and IL-4 on iNKT cells was compared between PBS, aGC, and C34-stimulated groups using Graphpad (Prism) and compared using Student's t-test between two Groups (ex: PBS vs aGC), and one-way ANOVA for comparison of PBS, aGC, and C34.

iNKTs = details: Parekh, 2005; cited from earlier work
[1] = system: patients with advanced solid tumors; details: Giaccone et al., 2002; cited from earlier work
EL4 lymphoma cells = assay: 51Cr-release killing assay of EL4 lymphoma cells with murine hepatic lymphocytes or sorted iNKTs; format: cell-based; details: for percent specific lysis relative to control: sorted murine iNKTs as effectors, p=0.014 C34 vs control; for percent specific lysis in comparison with control: unsorted hepatic lymphocytes as effectors, 100 ng/mL glycolipid antigen, p=0.0133 C34 vs nothing added
Procedure: FIGS. 9A-9B: iNKT-mediated cytotoxicity with glycolipid antigen (GAg) stimulation. (FIG. 9A) C57BL/6 hepatic lymphocytes (effectors) were co-cultured for 18 hours with ^51Cr-loaded EL4 lymphoma cells (targets) in triplicates at E:T ratios of 2.5:1, 5:1,10:1, 20:1, and 40:1; these cocultures were stimulated with either alpha galactosyl-ceramide (a-GalCer) or C34 at indicated concentrations or left unstimulated (Nothing added). (FIG. 9B) Similar experiments were performed with flow cytometrically sorted murine hepatic iNKTs as effector populations.
^51Cr Killing Assays. EL4 lymphoma cells were used as targets and were labeled with ^51Cr (Perkin-Elmer) at a ratio of 1 μCi per 1×10^6 cells at 37° C. for 1 hour; excess ^51Cr was removed by extensive washing in RPMI media as described previously (Orange et al., 2022). Murine hepatic iNKT-enriched cell populations and flow cytometrically sorted iNKTs were plated in 96-well round-bottom wells. 2×10^5 target cells were then mixed with these iNKTs in each well at designated effector to target ratios with 100 ng/mL of glycolipid antigen in triplicate. After 16 hours, supernatants from each well were transferred to a Deepwell Lumiplate (Perkin Elmer), dried overnight, and then analyzed by a TopCount gamma radiation detector (Perkin Elmer). Spontaneous release was determined by collecting supernatants from cultures of targets alone, while maximum lysis was measured from the supernatants of target cells that were fully lysed with detergent. Percent specific lysis was calculated by the equation: 100× (sample lysis cpm-spontaneously released cpm)/(maximum cpm-spontaneously released cpm), as described previously (Orange et al., 2022).
^51Cr-release killing assays: Percent specific lysis was calculated as described above and triplicate values were analyzed using Graphpad (Prism). Mean values and standard errors of the mean were calculated. Percent specific lysis among the three groups were compared using one-way ANOVA. Significance was set at p value of <0.05.

[2] = acute stimulation protocol, p=0.012 aGC vs PBS, p=0.0034 C34 vs PBS
[3] = chronic stimulation protocol, three intraperitoneal injections over 7 days, p=0.0010 for C34

Compound | IFN-γ MFI relative to PBS (hepatic iNKTs; [2]) | iNKT expression of intracellular IL-4 vs PBS (hepatic iNKTs) | iNKT expression of surface CD107a vs PBS (hepatic iNKTs) | expression of IFN-γ in iNKTs (hepatic iNKTs) | IFN-γ MFI relative to PBS (hepatic iNKTs; [3]) | duration of iNKT anergy following stimulation (iNKTs) | disease response [1] | dose-limiting toxicities [1] | patients with increased serum GM-CSF and TNF-α [1] | percent specific lysis relative to control (EL4 lymphoma cells) | percent specific lysis in comparison with control (EL4 lymphoma cells) | IFN-γ MFI, chronic vs acute group (hepatic iNKTs; chronic versus acute stimulation with the same glycolipid)
CCCCCCCCCCCCCCCCCCCCCCCCCC(=O)N[C@@H](CO[C@H]1O[C@H](CO)[C@H](O)[C@H](O)[C@H]1O)[C@H](O)[C@H](O)CCCCCCCCCCCCCC [aGC, α-GalactosylCeramide] | increased | No significant differences | No significant differences | 30.4 % of iNKTs | no difference | up to 6 months | without disease response | no dose-limiting toxicities | 5 of 24 | greater | higher | 
phenyl α-GalactosylCeramide [C34] | increased | No significant differences | No significant differences | 71.4 % of iNKTs | greater |  |  |  |  | greater | higher | not a significant difference
